The source of these data is US6946588B2, “Nucleic acid encoding a modified threonine deaminase and methods of use” (Monsanto Technology LLC, priority 1996, dated 2005).

The target in one series is BktB β-ketothiolase (Cupriavidus necator, UniProt Q0KBP1). As to the kind of experiment: Thiolysis kinetics of purified BktB β-ketothiolase. Conditions: 25° C. Here is the method: To enhance further our understanding of the kinetic characteristics of BktB β-ketothiolase, a thorough kinetic analysis of the enzyme's thiolysis activity was conducted using purified protein. The assay to determine the kinetic parameters Km and Vmax for βketobutyryl-CoA (C4), β-ketovaleryl-CoA (C5), and β-ketocaproyl-CoA (C6), was performed at 25° C. by the in situ generation of the β-keto compounds from their corresponding trans-2,3-enoyl-CoAs essentially as described by Haywood et al. (1988). Utilization of variable substrate concentrations permitted the determination of the descriptive kinetic parameters of the β-ketothiolase. Kinetic rates were determined only at fixed substrate concentrations in the Haywood et al. communication.
Purified BktB protein was prepared by growing E. coli […] transformed with pMON25754 in LB broth containing ampicillin (100μg/ml) overnight at 37° C. Cells were then harvested by centrifugation, and the pellet was resuspended in 50 mM KPi and 5% glycerol, sonicated, and the sonicate centrifuged to remove cellular debris. The cell extract was desalted using a PD-10 column (Pharmacia), and proteins resolved using a Pharmacia FPLC system and MonoQ anion-exchange column (Pharmacia). Buffer A was 10 mM Tris buffer, pH 7.8, plus 1 mM DTT; buffer B was buffer A plus 1 M KCl. The gradient was 0 to 10% B in 10 min, then to 35% B in 40 min. The flow rate was 1 ml/min, and the resolved proteins were collected at the rate of 1 ml/fraction. […] The enzyme was stored in 10 mM Tris-HCl, pH 7.8, 1 mM DTT, 50% glycerol at −20° C.
The C5 and C6 enoyl-CoAs were synthesized according to Schulz (1974) and purified using semi-prep C8-reverse-phase HPLC as described above for β-ketovaleryl-CoA. βketobutyryl-CoA (acetoacetyl-CoA) was purchased from Sigma (St. Louis, Mo.). The assay mixture (1 ml final volume) contained 150 mM EPPS, pH 8.0, 50 mM MgCl2, 1.5 mM pyruvate, 0.4 mM NAD+, and a coupling enzyme cocktail of three units crotonase, five units β-hydroxyacyl-CoA dehydrogenase, and 10 units lactic dehydrogenase. The enoyl-CoA was added to this mixture and the absorbance at 304 nm was monitored until it reached a plateau (typically about 5 min). CoA was added to this mixture, followed by BktB β-ketothiolase to initiate the reaction. The decrease in absorbance at 304 nm due to the thiolysis of the β-ketoacyl-CoA was utilized as a direct measure of activity. Extinction coefficients to convert absorbance units to μmol of product were 19.5, 12.2, and 14.0 cm^−1 mM^−1 for β-ketobutyryl-CoA, β-ketovaleryl-CoA, and β-ketocaproyl-CoA, respectively. β-ketoacyl-CoA concentration was varied from […] (CoA was fixed at 200 μM), and CoA concentration was varied from 20 to 400 μM (β-ketocaproyl-CoA was fixed at 60 μM) for determining kinetic parameters for β-ketoacyl-CoA and CoA, respectively. Reaction rates were calculated in the steady-state within the first minute following initiation. All data were fitted to the normal Michaelis-Menten equation using a non-linear regression analysis.

Series [1] relates to A. eutrophus PhbA and BktB β-ketothiolases. Briefly: β-Ketothiolase condensation assay with 1-14C-acetyl-CoA (PhbA, BktB). Type of series: biochemical. Conditions: 0.30 mM acetyl-CoA. The text has this:
As noted above, A. eutrophus can produce P(3HB-co-3HV) copolymer when provided with an appropriate C5 precursor. […] One of these β-ketothiolases, designated BktB herein, was encoded on plasmid pBK6. A. eutrophus BktB was obtained from E. coli DH5α transformed with plasmid pMON25754. pMON25754 was produced from the A. eutrophus pBK6 clone (Slater et al., 1988) by deleting a 5.0 kb XhoI fragment (there is an additional XhoI site approximately 5.0 kb 5′ to the XhoI site shown in FIG. 1 of Slater et al.). The pBK6 clone was produced by Slater et al. (1988) from A. eutrophus H16, i.e., ATCC accession number 17699, which is publicly available from the American Type Culture Collection, 12301 Parklawn Drive, Rockville, Md. 20852. BktB was overexpressed from its native promoter on the high copy plasmid pMON25754 by growing the cells overnight at 37° C. to stationary phase in LB broth containing ampicillin (100 μg/ml). A. eutrophus PhbA was obtained from E. coli DH5α transformed with pMON25636 (FIG. 20) by growing the cells at 37° C. in LB broth containing ampicillin (100 μg/ml) to early log phase and then inducing with IPTG. Cells were harvested after two hours of further growth.
The activity of β-ketothiolases can be assayed in both the condensation and thiolysis directions. However, condensation activity for products that are the result of a mixed condensation of acetyl-CoA and a longer chain acyl-CoA are difficult to measure. This is due to the difficulty in distinguishing between acetoacetyl-CoA, the product of condensing two acetyl-CoA molecules, and the mixed condensation reaction product, both of which form simultaneously. To date, condensation assays have been spectrophotometrically-based, but these are valid only when there is a single acyl-CoA substrate present (i.e., acetyl-CoA) since they cannot discriminate between the products formed. The assay described below represents the first reported assay that permits complete quantitation of all condensation products regardless of the nature of starting substrates.
β-ketothiolase assays designed to measure the condensation activity with acetyl-CoA plus either propionyl-CoA or butyryl-CoA were performed using 1-^14C-labelled acetyl-CoA. Since the equilibrium for the reaction lies heavily toward the starting acyl-CoAs rather than the condensed β-ketoacyl-CoA product, the latter was “pulled” to the corresponding β-hydroxyacyl-CoA using NADH and β-ketoacyl-CoA dehydrogenase. In addition, to avoid the strong feedback inhibition of β-ketothiolase by free CoA, each assay solution contained 5,5′-dithio-bis(2-nitrobenzoic acid) (DTNB) to trap chemically the free CoA produced by the reaction.
The condensation assay mixture (0.5 ml final volume) contained 100 mM KPi, pH 7.8, 0.5 mM NADH, 0.30 mM 1-^14C-acetyl-CoA (0.15 μCi), 5 units β-ketoacyl-CoA dehydrogenase, 0.5 mM DTNB, and variable propionyl- or butyryl-CoA as indicated in Table 5. The reaction was initiated by the addition of β-ketothiolase. Following 20 minutes at 30° C., each reaction mixture was quenched by the addition of 25 μl of 10% formic acid. Thirty μl of 25% H2SO4 were added to 200 μl of quenched reaction mix; this mixture was then incubated at 70° C. for 24 hours to hydrolyze all CoA thioesters to their free acids. Sixty μl of 5 M sodium formate were added to the sample to neutralize the pH, followed by analysis of a 130 μl aliquot using C18-reverse-phase HPLC (0.5×25 cm column). Detection and quantitation were carried out by monitoring flow-through with a Radiomatic flow detector. A gradient elution was employed using aqueous 1% acetic acid (solvent A) and acetonitrile (solvent B). […]

Sequence of BktB β-ketothiolase (Q0KBP1 2-394 limits assumed): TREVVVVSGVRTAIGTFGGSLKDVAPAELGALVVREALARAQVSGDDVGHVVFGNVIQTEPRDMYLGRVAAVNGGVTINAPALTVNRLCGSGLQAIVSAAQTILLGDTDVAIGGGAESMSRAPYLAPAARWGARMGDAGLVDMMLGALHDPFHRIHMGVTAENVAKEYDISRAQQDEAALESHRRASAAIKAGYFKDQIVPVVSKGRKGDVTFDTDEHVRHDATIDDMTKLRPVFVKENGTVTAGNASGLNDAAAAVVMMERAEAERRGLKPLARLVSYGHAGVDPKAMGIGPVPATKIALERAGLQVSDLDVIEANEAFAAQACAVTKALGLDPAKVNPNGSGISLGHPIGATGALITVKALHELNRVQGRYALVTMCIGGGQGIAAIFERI

As to `CC(C)(COP(=O)(O)OP(=O)(O)OC[C@H]1O[C@@H](n2cnc3c(N)ncnc32)[C@H](O)[C@@H]1OP(=O)(O)O)[C@@H](O)C(=O)NCCC(=O)NCCS` [CoA, coenzyme A], the Vmax at BktB β-ketothiolase (β-ketocaproyl-CoA fixed at 60 μM) was found to be 98 ± 3 u/mg.

As to `CCCC(=O)CC(=O)SCCNC(=O)CCNC(=O)[C@H](O)C(C)(C)COP(=O)(O)OP(=O)(O)OC[C@H]1O[C@@H](n2cnc3c(N)ncnc32)[C@H](O)[C@@H]1OP(=O)(O)O` [B-ketocaproyl-CoA], at BktB β-ketothiolase (CoA fixed at 200 μM), the Km is 6 ± 0.7 µM and the Vmax is 103 ± 3 u/mg.

With `CCC(=O)CC(=O)SCCNC(=O)CCNC(=O)[C@H](O)C(C)(C)COP(=O)(O)OP(=O)(O)OC[C@H]1O[C@@H](n2cnc3c(N)ncnc32)[C@H](O)[C@@H]1OP(=O)(O)O` [B-ketovaleryl-CoA], on BktB β-ketothiolase (CoA fixed at 200 μM), the Km worked out at 15 ± 1 µM and the Vmax came out at 236 ± 8 u/mg.

In the case of `CC(=O)CC(=O)SCCNC(=O)CCNC(=O)[C@H](O)C(C)(C)COP(=O)(O)OP(=O)(O)OC[C@H]1O[C@@H](n2cnc3c(N)ncnc32)[C@H](O)[C@@H]1OP(=O)(O)O` [B-ketobutyryl-CoA], on BktB β-ketothiolase (CoA fixed at 200 μM), the Km was 37 ± 3 µM and the Vmax was 122 ± 5 u/mg.

B1: PhbA: A. eutrophus PhbA β-ketothiolase obtained from E. coli DH5α transformed with pMON25636 (protein, UniProt P14611 1-393, looked up)
Acetyl-CoA acetyltransferase: MTDVVIVSAARTAVGKFGGSLAKIPAPELGAVVIKAALERAGVKPEQVSEVIMGQVLTAGSGQNPARQAAIKAGLPAMVPAMTINKVCGSGLKAVMLAANAIMAGDAEIVVAGGQENMSAAPHVLPGSRDGFRMGDAKLVDTMIVDGLWDVYNQYHMGITAENVAKEYGITREAQDEFAVGSQNKAEAAQKAGKFDEEIVPVLIPQRKGDPVAFKTDEFVRQGATLDSMSGLKPAFDKAGTVTAANASGLNDGAAAVVVMSAAKAKELGLTPLATIKSYANAGVDPKVMGMGPVPASKRALSRAEWTPQDLDLMEINEAFAAQALAVHQQMGWDTSKVNVNGGAIAIGHPIGASGCRILVTLLHEMKRRDAKKGLASLCIGGGMGVALAVERK
modifications: expressed in E. coli
notes: A. eutrophus PhbA β-ketothiolase obtained from E. coli DH5α transformed with pMON25636
As for B1, the “% Turnover C4 Product” value in series [1] (propionyl-CoA 0 mM) was determined as 16.9%; in series [1] (propionyl-CoA 0.6 mM), 13.5%; in series [1] (propionyl-CoA 1.2 mM) it was 10.3%; in series [1] (propionyl-CoA 2.4 mM) it was 7.0%. Moreover, the “% Turnover C5 Product” value in series [1] (propionyl-CoA 0.6 mM), in series [1] (propionyl-CoA 1.2 mM) and in series [1] (propionyl-CoA 2.4 mM) was 0% throughout.
